# Measured values: patent US7601501B2, “Controlling osteogenesis by inhibition of osteogenic suppressors” (The Scripps Research Institute, priority 2006, dated 2009)
# “Also recorded” adds a separate entry of the source. Strand notation (5' to 3'): a small letter for the sugar, then the base; units joined by * are phosphorothioate-linked, units joined directly phosphodiester-linked; [ ] holds rarer units or linkages, { } end groups; capitals alone tell only the bases. d = 2'-deoxy (DNA)
# What was measured:
# ERK1/2 and p38 = assay: Western blot of phosphorylated ERK1/2 and p38; type: cell-based, human; settings: 72 hours after transfection
# Experimental: Cell lyses buffer contains 20 mM Tris pH8.0, 1 mM EDTA, 150 mM NaCl and 0.5% NP-40, and before usage, protease inhibitor cocktail (Cat# p8340, Sigma, 1:100 dilution) and phosphatase inhibitor cocktail 2 (Cat# p5726, sigma, 1:100 dilution) were added. Proteins (60 μg/well) were separated in 12% Novex Tris-Glycine gel (Cat# EC6008 box, Invitrogen) and transferred to Nitrocellulose membrane (Cat# LC2001, Invitrogen) using the XCell II blot module system (Cat# EI9051, Invitrogen). The membrane was blocked in 5% milk/PBST for 1 hour at room temperature, incubated over night at 4 degree with primary antibody, washed 3 times with PBST (0.05% Tween 20 in PBS), followed by one hour incubation with secondary antibody in 5% milk/PBST and 3 times wash with PBST at room temperature. For antibody against pCREB however, PBST was substituted with PBS in all steps except for the last one. Antibody-bound proteins were detected utilizing ECL Western blotting detection reagent (Amersham Biosciences).
# Anti-phospho-CREB was purchased from Upstate Biotechnology (cat# 06-519); Anti-phospho-p38 was purchased from Cell signaling technology (cat# 9910).
# We therefore examined the activation status of ERK1/2 and p38 in the siDUSP6 treated hMSCs along with other siRNA treated samples by western blot using antibodies against the phosphorylated form of the protein at 72 hours after transfection (FIG. 9c).
# [1] = tested on: human mesenchymal stem cells (hMSCs); assay: Alizarin red staining for calcium phosphate deposits (ECM mineralization, bone cell maturation); type: cell-based; settings: OS started three days after siRNA transfection and continued for 9 days
# Experimental: Cells were rinsed with PBS twice, stained in alizarin red solution (cat# vw3611-2, VWR) for 8 minutes at room temperature, washed with PBS again, fixed in 10% formalin solution (cat# HT-5014, Sigma) for 20 minutes, then rinsed with water and air dried.
# Bone cell maturation is accompanied by extracellular matrix (ECM) mineralization (John Bilezikian et al., Principles of bone biology, Vol 1, 2nd edn: Academic Press) (2002)). […] […] These observations are consistent with the conclusion that the targeted genes of the ten effective hit siRNAs not only play inhibitory roles in osteogenic specification of hMSCs, but also in bone cell maturation. […] Furthermore, in osteoporotic patients, the number of adipocytes was increased in the marrow, implying a change of cell fate disposition from osteoblast lineage to adipocyte lineage (Justesen, J. et al., Biogerontology 2:165-171 (2001); Meunier, P. et al., Clin Orthop Relat Res 80:147-154 (1971)). We therefore examined the effect of our hit siRNAs on adipogenic differentiation of hMSCs by combined treatment with an adipogenic inducing cocktail (100 μg/ml IBMX, 1 μM DEX and 10 μg/ml insulin).
# [2] = tested on: human mesenchymal stem cells (hMSCs); assay: Alkaline phosphatase (ALP) activity staining of siRNA-transfected hMSCs (osteogenic differentiation screen); type: cell-based; settings: for ALP activity induced by the hit siRNAs or OS, on co-transfection: co-transfected with each hit siRNA, compared to siCon co-transfection
# Experimental: (§1) The human mesenchymal stem cells (hMSCs, PT-2501) were purchased from Cambrex Inc. and cultured as instructed by the supplier. Cells were expanded to passage 5 before being used for siRNA library screen. Briefly, diluted Xtreme-siRNA transfection reagent (cat# 4 476 115 00, Roche) (0.12 μl Xtreme in 14 μl DMEM) was mixed with pre-spotted siRNA (14 ng/well) in each well of 384-well plates for one hour. Cells (4000/well) in 60 μl media (no antibiotics) were then added using automated dispenser (Multidrop 384, Thermo LabSystems) (siRNA final concentration at around 15 nM). Transfection was allowed to continue for 8 hours before first media renewal. After 7 days of culture, cells were stained for alkaline phosphatase (ALP) activity (cat# 86R-1KT, Sigma). Post-screen assays were done in 96-well plates and siRNA was transfected at the concentration of 30 nM at the cell density of 8000 cells/well. CRE decoy oligonucleotide and control oligonucleotide (phosphorothioate bond modification on all nucleotides) (Park, Y. G. et al., J Biol Chem 274:1573-1580 (1999)) were transfected into cells similarly as siRNA using Xtreme-siRNA transfection reagent, except that the final DNA concentration was 90 nM. Control siRNA (siCon) used in the screen contains a pool of 50 scrambled sequences that have at least 4 mismatches to known human transcripts and ESTs, and at least 2-3 mismatches to the whole human genome. siCon used in target characterization after primary screen was purchased from Dharmacon (D-001210-01-05), which was bioinformatically designed to have >=4 mismatches with known human and mouse genes. siTOX was also purchased from Dharmacon (D-001500-01-05).
# Fifty five hits that gave rise to a significant increase of ALP activity on day 7 after siRNA transfection in hMSCs were identified and confirmed (FIG. 2a & Table 1).
# CREB = assay: CRE decoy transfection followed by osteogenic or adipogenic induction media; type: cell-based, human; settings: 90 nM oligonucleotide, vs CRE mismatch control; for adipogenic differentiation after decoy transfection: adipogenic induction media
# Experimental: as §1
# To find out whether CREB (cAMP Responding Element Binding protein), a common downstream effector of cAMP signaling pathway, is involved in mediating cAMP signaling controlled differentiation of hMSCs, we checked the expression level of the active form of CREB proteins in cells 3 days after siP2RY11, siADK, siGNAS, siSLC12a2 or siCon transfection. […]
# BMP-2, PLZF, TAZ = assay: RT-PCR of positive regulators of osteogenesis; type: cell-based, human; settings: samples collected on day 7 or day 12 after siRNA transfection
# Experimental: Total RNA from each sample was prepared from around 5×10(4) cells using RNAeasy mini kit from Qiagen and further treated with Turbo DNA-Free (cat# 1907, Ambion) to prevent DNA contamination. Reverse transcription was carried out using SuperScript First-Strand Synthesis System for RT-PCR (cat# 11904-018, Invitrogen) or Qiagen OneStep RT-PCR kit (cat# 210210) as instructed. PCR primers used were as follows: […]
# To test their roles in our siRNA induced osteogenic differentiation, RT-PCR was performed on these genes. […] In addition, MAPK signaling pathways have been shown activated in the OS treated hMSCs, and inhibition of these pathways suppresses OS induced osteogenesis (FIG. 9b) (Jaiswal, R. K. et al., J Biol Chem 275:9645-9652 (2000)).
# [3] = tested on: human mesenchymal stem cells (hMSCs); assay: Oil Red O staining, adipogenic differentiation with adipogenic inducing media; type: cell-based
# Experimental: Cells were rinsed with PBS twice, fixed in 10% formalin solution for 20 minutes, rinsed with PBS twice and dH2O once, washed with propylene glycol for 5 minutes, and stained with Oil red in propylene glycol (I2722A, Newcomer Supply) for 30 minutes. Cells were then washed with 85% propylene glycol for 5 minutes, rinsed with dH2O 3 times and preserved in 50% glycerol.
# Bone cell maturation is accompanied by extracellular matrix (ECM) mineralization (John Bilezikian et al., Principles of bone biology, Vol 1, 2nd edn: Academic Press) (2002)). To examine whether the osteogenic differentiation of hMSCs induced by the hit siRNAs can further proceed to the maturation stage, hit siRNA treated cells were cultured for 20 days. […] These observations are consistent with the conclusion that the targeted genes of the ten effective hit siRNAs not only play inhibitory roles in osteogenic specification of hMSCs, but also in bone cell maturation. […] Furthermore, in osteoporotic patients, the number of adipocytes was increased in the marrow, implying a change of cell fate disposition from osteoblast lineage to adipocyte lineage (Justesen, J. et al., Biogerontology 2:165-171 (2001); Meunier, P. et al., Clin Orthop Relat Res 80:147-154 (1971)). […]
# [4] = tested on: human mesenchymal stem cells (hMSCs); assay: Compound treatment: OS-induced osteogenic differentiation of hMSCs (ALP / alizarin red staining); type: cell-based; settings: compound combined with OS treatment; ALP and/or alizarin red staining
# Experimental: 8-CPT-cAMP, Na (cat# 116812), 5-Iodotubercidin (cat# 407900), Prostaglandin E2 (PGE2, cat# 538904), SB 202190 (cat# 559388) and U0126 (cat# 662005) were purchased from Calbiochem; N6,2′-O-Dibutyryl-cAMP (cat# D0260-5MG), forskolin (cat# F6886), ascorbic acid 2-phosphate (cat# 49752-10G), β-glycerophosphate (G-6251), dexamethasone (D8893), 3-isobutyl-1-methylxanthine (IBMX, I5879) and Insulin (I 9278) were purchased from Sigma/Aldrich/Fluka.
# Since the targeted genes are all positively involved in intracellular cAMP signaling, we tested the effect of two compounds of opposing function on cAMP production on osteogenic differentiation of hMSCs, ADK inhibitor 5-iodotubercidin and ADCY activator forskolin (Cottam, H. B. et al., J Med Chem 36:3424-3430 (1993); de Souza, N. J. et al., Med Res Rev 3:201-219 (1983)). […] ATP has been shown as a ligand for P2RY11 receptor (Communi et al., 1997). […] The present observations are consistent with the conclusion that […] in hMSCs, and vice versa.
compound,measurement,setting,value
"CUGUGGUGUCUUGGUACAU (listed as RNA, chemistry not given here) [siDUSP6, siRNA targeting dual specificity phosphatase 6]",phosphorylated (active) p38 level (Western blot),ERK1/2 and p38,increased level; also recorded: up regulated
same,"intensity of alizarin red staining (bone cell maturation), 3+9OS",[1],modest enhancement
"UAGUAGAGAUAUGGAGUGCtg (antisense); GCACUCCAUAUCUCUACUAtt (sense) (chain 1 UAGUAGAGAUAUGGAGUGCTG; chain 2 GCACUCCAUAUCUCUACUATT; chemistry not given here) [CBFA1 siRNA, CBFA 1-specific siRNA]","ALP activity induced by the hit siRNAs or OS, on co-transfection",[2],reduced the level of ALP activity
same,"ALP activity induced by the hit siRNAs or OS, on co-transfection",[2]; listed as siCbfa 1,reduced
"5′-TGACGTCATGACGTCATGACGTCA-3′ (DNA dT*dG*dA*dC*dG*dT*dC*dA*dT*dG*dA*dC*dG*dT*dC*dA*dT*dG*dA*dC*dG*dT*dC*dA) [CRE decoy, synthetic 24-mer CRE decoy palindrome oligonucleotide, phosphorothioate bond modification on all nucleotides]",adipogenic differentiation after decoy transfection,CREB,inhibited cells from undergoing adipogenic differentiation
same,adipogenic differentiation after decoy transfection,CREB; listed as CRE (CREB responding element) decoy,less responsive
same,osteogenic differentiation after decoy transfection,"CREB; osteogenic induction media (OS), listed as CRE (CREB responding element) decoy",less responsive
"CAGAUGCAUCGACCAAAAC (siRNA; listed as RNA, chemistry not fully specified) [siMJD, siRNA targeting Machado-Joseph disease (ataxin 3)]","intensity of alizarin red staining (bone cell maturation), 3+9OS",[1],no significant effect
same,expression of PLZF (RT-PCR),"BMP-2, PLZF, TAZ",detected; also recorded: induced
"CGGUCACGGAUGACGACUA (listed as RNA, chemistry not given here) [siCOMP, siRNA targeting cartilage oligomeric matrix protein]",adipogenesis induced by adipogenic inducing media (Oil Red O),"[3]; Adipo on the third day after siRNA transfection, continued for 12 days",enhances adipogenesis
same,osteogenic differentiation (alkaline phosphatase activity),[2]; 9 days after siRNA transfection,induces osteogenic differentiation
Nc1ncnc2c1c(I)cn2[C@@H]1O[C@H](CO)[C@@H](O)[C@H]1O [5-iodotubercidin],"adipogenic differentiation of hMSCs (oil red o staining), compound",[3]; adipogenic inducing media plus compound,inhibited the adipogenic differentiation of hMSCs in a dose dependent manner
same,osteogenic effect of the OS media on hMSCs,[4],significantly enhanced; also recorded: enhanced the osteogenic effect of the OS media
